{
  "source": "BindingDB's records for doi:10.7270/Q25D8QFV",
  "about": "(Burnham Center For Chemical Genomics, 2012)",
  "data": [
    {"biological_target": "T1, Mitochondrial import inner membrane translocase subunit TIM23 (Saccharomyces cerevisiae (strain ATCC 204508 / S288c), UniProt P32897)", "T1 sequence (P32897 whole entry)": "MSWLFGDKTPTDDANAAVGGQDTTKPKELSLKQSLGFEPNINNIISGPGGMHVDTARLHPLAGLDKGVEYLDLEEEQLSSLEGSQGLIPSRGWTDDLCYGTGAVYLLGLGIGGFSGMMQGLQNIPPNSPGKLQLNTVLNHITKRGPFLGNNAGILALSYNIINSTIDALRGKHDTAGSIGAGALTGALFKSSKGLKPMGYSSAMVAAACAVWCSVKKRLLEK", "assay": "tim23-1 mutant yeast growth inhibitors, SAR follow-up, luminescence, S. cerevisiae (AID 602375)", "units": {"IC50": "µM"}, "values": [
      {"compound": "Cc1c2c(n(Cc3ccco3)c1C)N=CN1C=CS(=O)(=O)NC21", "note": "(stereo not given) [8-(furan-2-ylmethyl)-9,10-dimethyl-3,4-dihydropyrrolo[1,2]pyrimido[3,5-b][1,2,4]thiadiazine 2,2-dioxide]", "IC50": "> 99"},
      {"compound": "Cc1ccc2nc(-n3c(O)c[nH]c3=S)sc2c1", "IC50": 50.3},
      {"compound": "Cc1ccc(C2NN=C(c3ccc(Cl)cc3Cl)S2)cc1", "note": "(stereo not given) [MLS-0463404.0001]", "IC50": 44.3},
      {"compound": "CCOc1ccc2nc(-n3c(O)c[nH]c3=S)sc2c1", "note": "[3-(6-Ethoxy-benzothiazol-2-yl)-2-thioxo-imidazolidin-4-one]", "IC50": "> 99"},
      {"compound": "C(=CN=Nc1nc2ccccc2[nH]1)Cc1ccccc1", "note": "[MLS000390936]", "IC50": 11.2}
    ]}
  ]
}
